Earlier results as cited in US20240156825A1, “USE OF SELECTIVE VEGFR2 AND FGFR1 INHIBITORS” (Fountain Therapeutics Inc., priority 2022, published 2024).
Where two headings read alike, the source gives them in different places.

Columns and labels:
[1] = molecular target: VEGFR2 (Homo sapiens, UniProt P35968); details: reported IC50 to VEGFR2, read-out: VEGFR2 IC50_μM, cited from earlier work
[2] = tested on: any gene target; details: read-out: Min IC50_μM, cited from earlier work
[3] = next lowest IC50 value to any gene target
[4] = Table 3, selective inhibitors of VEGFR2
[5] = next lowest IC50 value to any gene target, Table 3
[6] = Table 2, lowest reported IC50 to any gene target
[7] = lowest reported IC50 to any gene target

Chain of VEGFR2 (P35968 20-1356, species assumed): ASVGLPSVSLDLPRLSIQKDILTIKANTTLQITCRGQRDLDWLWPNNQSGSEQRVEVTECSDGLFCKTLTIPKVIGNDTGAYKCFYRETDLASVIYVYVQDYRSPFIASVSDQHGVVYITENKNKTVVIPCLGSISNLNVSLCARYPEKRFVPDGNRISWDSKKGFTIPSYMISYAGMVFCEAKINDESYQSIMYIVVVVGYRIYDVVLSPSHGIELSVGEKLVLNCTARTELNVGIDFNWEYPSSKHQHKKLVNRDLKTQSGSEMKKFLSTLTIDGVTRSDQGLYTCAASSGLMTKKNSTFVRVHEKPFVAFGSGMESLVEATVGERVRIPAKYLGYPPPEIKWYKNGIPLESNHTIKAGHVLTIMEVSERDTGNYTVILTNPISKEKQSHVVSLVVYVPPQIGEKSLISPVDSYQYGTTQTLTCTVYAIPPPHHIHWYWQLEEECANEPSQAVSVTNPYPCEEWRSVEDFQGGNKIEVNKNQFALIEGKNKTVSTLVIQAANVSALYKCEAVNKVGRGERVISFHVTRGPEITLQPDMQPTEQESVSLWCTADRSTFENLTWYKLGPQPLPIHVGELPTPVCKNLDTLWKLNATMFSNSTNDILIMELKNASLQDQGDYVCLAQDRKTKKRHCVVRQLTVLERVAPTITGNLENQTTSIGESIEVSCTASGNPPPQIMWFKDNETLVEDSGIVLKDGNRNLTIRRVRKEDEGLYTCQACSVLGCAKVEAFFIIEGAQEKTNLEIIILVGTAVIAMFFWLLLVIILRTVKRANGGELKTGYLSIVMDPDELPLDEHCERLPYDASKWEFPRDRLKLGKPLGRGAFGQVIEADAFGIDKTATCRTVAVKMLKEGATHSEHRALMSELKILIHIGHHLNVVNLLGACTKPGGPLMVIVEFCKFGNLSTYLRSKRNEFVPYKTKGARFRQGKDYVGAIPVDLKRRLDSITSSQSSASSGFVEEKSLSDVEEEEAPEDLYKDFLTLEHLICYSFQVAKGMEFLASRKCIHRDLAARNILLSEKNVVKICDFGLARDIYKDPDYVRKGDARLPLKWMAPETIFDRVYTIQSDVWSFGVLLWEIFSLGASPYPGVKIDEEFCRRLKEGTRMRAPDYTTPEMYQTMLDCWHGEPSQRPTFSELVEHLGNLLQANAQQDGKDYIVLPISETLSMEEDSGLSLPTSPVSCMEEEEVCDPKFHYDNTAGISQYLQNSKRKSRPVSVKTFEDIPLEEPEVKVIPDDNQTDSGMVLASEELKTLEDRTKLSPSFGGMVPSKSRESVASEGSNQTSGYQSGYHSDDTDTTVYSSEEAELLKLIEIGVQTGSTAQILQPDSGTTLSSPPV

SMILES	IC50 [2, 3]	IC50 [2, 6]	also measured
COc1cc2nccc(Oc3ccc4c(NC(=O)c5cccc(C(F)(F)F)c5)nn(C)c4c3)c2cc1OC [compound 11398307]	45 nM	–	IC50 [1]: 1 nM
COc1cc2c(Nc3ccc(Br)c(Cl)c3F)ncnc2cc1OCC1CN(C)C(C)(C)CO1 (stereo not drawn) [compound 57802747]	50 nM	–	IC50 [1]: 50 nM
CCOc1cc2c(Nc3ccc(Cl)c(Cl)c3)ncnc2cc1OCC1CN(C)CCO1 (stereo not drawn) [compound 57802695]	50 nM	–	IC50 [1]: 50 nM
CCN=C(NC#N)N1CCOC(COc2cc3ncnc(Nc4ccc(Cl)c(Cl)c4)c3cc2OC)C1 (stereo not drawn) [compound 57802565]	–	–	IC50 [1, 4]: 50 nM; IC50 [2, 5]: 50 nM
COc1cc2c(Nc3ccc(C)cc3F)ncnc2cc1OCC1CCNCC1 [compound 5329049]	250 nM	–	IC50 [1]: 30 nM
CS(=O)(=O)Cc1cccc(Nc2nccc(Oc3ccc4c(C(=O)Nc5cccnc5)cccc4c3)n2)c1 [compound 127037812]	4.9 nM	–	IC50 [1]: 0.5 nM
CO/N=C(\C)c1ccc2c(c1)c1c3c(c4c(c1n2CC(C)C)CCc1nn(C)cc1-4)C(=O)NC3 [compound 44447890]	8 nM	–	IC50 [1]: 4 nM
CN=C(NC#N)N1CCOC(COc2cc3ncnc(Nc4ccc(Cl)c(C)c4)c3cc2OC)C1 (stereo not drawn) [compound 89125605]	–	–	IC50 [1, 4]: 50 nM; IC50 [2, 5]: 50 nM
COc1ccc(NC(=O)Nc2ccc3c(c2)NC(=O)/C3=C\c2[nH]cc(C(=O)O)c2C)cc1 [compound 46898039]	–	–	IC50 [1, 4]: 0.5 nM; IC50 [2, 5]: 0.5 nM
COc1cc2c(Nc3cccc(Cl)c3Cl)ncnc2cc1OCC1CN(C(C)=N)CCCO1 (stereo not drawn) [compound 134151034]	–	–	IC50 [1, 4]: 50 nM; IC50 [2, 5]: 50 nM
COc1cc2c(Nc3ccc(Cl)c(Cl)c3)ncnc2cc1OCCC1CNC(C)(C)CO1 (stereo not drawn) [compound 57802637]	50 nM	–	IC50 [1]: 50 nM
COc1cc2c(Nc3ccc(Cl)c(Cl)c3)ncnc2cc1OCC1CN(S(C)(=O)=O)CCCO1 (stereo not drawn) [compound 57802556]	–	–	IC50 [1, 4]: 50 nM; IC50 [2, 5]: 50 nM
COc1cc2c(Nc3cc(F)c(Br)cc3F)ncnc2cc1OCC1CN(C)CCO1 (stereo not drawn) [compound 57802916]	–	–	IC50 [1, 4]: 50 nM; IC50 [2, 5]: 50 nM
COc1cc2c(Nc3ccc(Cl)c(Cl)c3)ncnc2cc1OC[C@H]1CN2CCC[C@H]2CO1 [compound 66838546]	–	–	IC50 [1, 4]: 50 nM; IC50 [2, 5]: 50 nM
COc1cc2nccc(Oc3ccc4c(C(=O)NC5CC5)cccc4c3)c2cc1C(N)=O [compound 11750694]	185 nM	–	IC50 [1]: 0.37 nM
COc1cc2c(Nc3c(F)cc(Br)cc3F)ncnc2cc1OCC1CCN(C)CC1 [compound 5329046]	100 nM	–	IC50 [1]: 10 nM
Cc1cccc(NC(=O)Nc2ccc(-c3csc4ncnc(N)c34)cc2)c1 [compound 6539985]	2 nM	–	–
COc1cc(OC)cc(N(CCNC(C)C)c2ccc3ncc(-c4cnn(C5CCN(C)CC5)c4)nc3c2)c1 [compound 134142615]	–	2.95 nM	–
COc1cc(OC)cc(N(CC#Cc2cccc(CO)n2)c2ccc3ncc(-c4cnn(C)c4)nc3c2)c1 [compound 68208920]	–	46.8 nM	–
COc1cc(OC)cc(N(CCNC(C)C)c2ccc3ncc(-c4cnn(C)c4)nc3c2)c1 [compound 118014709]	–	2.29 nM	–
COc1cc(OC)cc(N(CC#Cc2cc(C(N)=O)ccn2)c2ccc3ncc(-c4cnn(C)c4)nc3c2)c1 [compound 89447328]	–	2.46 nM	–
CNCCN(c1cc(OC)cc(OC)c1)c1ccc2ncc(-c3cnn(CC(=O)NC)c3)nc2c1 [compound 68208748]	–	2.57 nM	–
O=C(Nc1ccc(Cl)cc1)c1ccccc1NCc1ccncc1 [compound 9797919]	180 nM	–	–

SMILES	IC50 [2, 3]	IC50 [2, 6]	also measured
COc1cc2nccc(Oc3ccc4c(C(N)=O)cccc4c3)c2cc1C(N)=O [compound 11211389]	390 nM	–	–
COc1cc2nccc(Oc3ccc(NC(=O)Nc4cc(C)on4)c(Cl)c3)c2cc1OC [compound 118737468]	3.26 nM	–	–
COc1cc(OC)cc(N(CCCN)c2ccc3ncc(-c4cn[nH]c4)nc3c2)c1 [compound 68208813]	–	1.18 nM	–
COc1cc(OC)cc(N(CC#Cc2nccnc2Cl)c2ccc3ncc(-c4cnn(C)c4)nc3c2)c1 [compound 89447345]	–	15.8 nM	–
CNCCN(c1cc(OC)cc(OC)c1)c1ccc2ncc(-c3cnn(C(C)C)c3)nc2c1 [compound 134133926]	–	2.88 nM	–
COc1cc(F)cc(N(CCCN2CCCC2)c2ccc3ncc(-c4cn[nH]c4)nc3c2)c1 [compound 134140310]	–	1.86 nM	–
COc1cc(OC)cc(N(CCCN2CCC[C@H]2C)c2ccc3ncc(-c4cnn(C)c4)nc3c2)c1 [compound 134146811]	–	2.14 nM	–
C[C@@H](Oc1ccc2[nH]nc(/C=C/c3cnn(CCO)c3)c2c1)c1c(Cl)cncc1Cl [compound 46944259]	–	2.6 nM	–
CONC(=O)c1cc(Nc2ncnn3cc(-c4nnc(C(C)C)o4)c(C(C)C)c23)c(F)cc1F [compound 11442803]	–	–	IC50 [2, 7]: 1 nM
COc1cc(OC)cc(N(CC#Cc2cc(C)ccn2)c2ccc3ncc(-c4cnn(C)c4)nc3c2)c1 [compound 67466880]	–	–	IC50 [2, 7]: 9.33 nM
COc1cc(OC)cc(N(CCN2CCC(O)C2)c2ccc3ncc(-c4cnn(C)c4)nc3c2)c1 (stereo not drawn) [compound 134154939]	–	–	IC50 [2, 7]: 1.82 nM
CN1CCN(CCCNc2ncc3cc(-c4c(Cl)cccc4Cl)c(NC(=O)NC4CCCCC4)nc3n2)CC1 [compound 5328158]	–	–	IC50 [2, 7]: 31 nM
CCNC(=O)Nc1ccc(Oc2ncnc(N)c2/C=N/OC)cc1Cl [compound 16742063]	183 nM	–	–
COc1cc(OC)cc(N(CCNCCO)c2ccc3ncc(-c4cnn(C)c4)nc3c2)c1 [compound 68209464]	–	2.24 nM	–
COc1cc2ncnc(Nc3ccc(Cl)cc3F)c2cc1OC [compound 5329006]	1000 nM	–	–
COc1cc(OC)c(C)c(N(CCNC(C)C)c2ccc3ncc(-c4cnn(C)c4)nc3c2)c1 [compound 134147170]	–	6.46 nM	–
COc1ccc(-c2ccc(NC(=O)Nc3cc(C)ccc3F)cc2)c2c(N)noc12 [compound 11429654]	24 nM	–	–
CNC(=O)c1cc(Oc2ccc(NC(=O)Nc3ccc(Cl)c(C(F)(F)F)c3)cc2)ccn1 [compound 216239]	0.2 nM	–	–
COc1cc(OC)cc(N(CCNC(C)C)c2ccc3ncc(-c4cnn(C5CCNCC5)c4)nc3c2)c1 [compound 68208989]	–	2.88 nM	–
COc1cc(OC)cc(N(C[C@@H]2CCCN2)c2ccc3ncc(-c4cnn(C)c4)nc3c2)c1 [compound 68208803]	–	3.16 nM	–
CNC(=O)c1ccccc1Sc1ccc2c(/C=C/c3ccccn3)n[nH]c2c1 [compound 6450551]	–	–	IC50 [2, 5]: 0.1 nM
COc1cc(OC)cc(N(CC#Cc2cc(N)ccn2)c2ccc3ncc(-c4cnn(C)c4)nc3c2)c1 [compound 89447499]	–	2.95 nM	–
COc1cc(CCc2cc(NC(=O)c3ccc(N4C[C@@H](C)N[C@@H](C)C4)cc3)n[nH]2)cc(OC)c1 [compound 51039095]	–	0.4 nM	–

SMILES	IC50 [2, 3]	IC50 [2, 6]	also measured
COc1cc2nccc(Oc3ccc(NC(=O)C4(C(=O)Nc5ccc(F)cc5)CC4)cc3)c2cc1OC [compound 25102847]	1.3 nM	–	–
COc1cc2c(Nc3ccc(Br)cc3F)ncnc2cc1OCCn1ccnn1 [compound 5329032]	–	–	IC50 [1]: 30 nM
COc1cc(N(CCNC(C)C)c2ccc3ncc(-c4cnn(C)c4)nc3c2)cc2c1OCO2 [compound 68209505]	–	2.88 nM	–
COc1cc(OC)cc(N(CCCN2CCC(F)(F)C2)c2ccc3ncc(-c4cn[nH]c4)nc3c2)c1 [compound 134142457]	–	10.5 nM	–
COc1cc(OC)cc(N(CC(O)CN2CCCCC2)c2ccc3ncc(-c4cnn(C)c4)nc3c2)c1 (stereo not drawn) [compound 68209482]	–	–	IC50 [2, 7]: 2.95 nM
CCNC(=O)c1cccc2cc(Oc3ccnc4cc(OC)c(OC)cc34)ccc12 [compound 11486459]	46 nM	–	–
COc1cc(OC)cc(N(CCNC(C)C)c2ccc3ncc(-c4cn[nH]c4)nc3c2)c1 [compound 134148952]	–	3.39 nM	–
COc1cc(OC)cc(N(Cc2ncccn2)c2ccc3ncc(-c4cnn(C)c4)nc3c2)c1 [compound 68208969]	–	8.13 nM	–
COc1cc(OC)cc(N(CCCN2[C@H](C)CC[C@@H]2C)c2ccc3ncc(-c4cnn(C)c4)nc3c2)c1 [compound 134135888]	–	2.51 nM	–
CNC(=O)Cn1cc(-c2cnc3ccc(N(CCNC(C)C)c4cc(OC)cc(OC)c4)cc3n2)cn1 [compound 134132789]	–	3.39 nM	–
COc1cc(OC)cc(N(CCN2CCCC2)c2ccc3ncc(-c4cn[nH]c4)nc3c2)c1 [compound 134153401]	–	2.46 nM	–
COc1cc(OC)cc(N(CCCN2CCCC2(C)C)c2ccc3ncc(-c4cnn(C)c4)nc3c2)c1 [compound 134151320]	–	–	IC50 [2, 7]: 1.91 nM
COc1ccc(OC)c(N(CCCN2CCCC2)c2ccc3ncc(-c4cnn(C)c4)nc3c2)c1 [compound 134157453]	–	–	IC50 [2, 7]: 38 nM
COc1cc(OC)cc(N(CCN2CCC(N)C2)c2ccc3ncc(-c4cnn(C)c4)nc3c2)c1 (stereo not drawn) [compound 134157853]	–	1.99 nM	–
COc1cc(OC)cc(N(CCNC(C)C)c2ccc3ncc(-c4cnn(C)c4C)nc3c2)c1 [compound 68209154]	–	4.68 nM	–
COc1cc(OC)cc(N(CCCc2cc(C)ccn2)c2ccc3ncc(-c4cnn(C)c4)nc3c2)c1 [compound 68208924]	–	–	IC50 [2, 7]: 10.7 nM
COc1cc(OC)cc(N(CCNCC2CC2)c2ccc3ncc(-c4cnn(C)c4)nc3c2)c1 [compound 68208778]	–	3.02 nM	–
Nc1[nH]nc2nccc(-c3ccc(NC(=O)Nc4cccc(C(F)(F)F)c4)cc3)c12 [compound 11495270]	2 nM	–	–
COc1cc2c(Nc3ccc(Br)cc3F)ncnc2cc1OCC1CCN(C)CC1 [compound 3081361]	11 nM	–	–
COc1ccc(-c2ccc(NC(=O)Nc3cccc(C(F)(F)F)c3)cc2)c2c(N)noc12 [compound 11374110]	16 nM	–	–
COc1cc(OC)cc(N(CCCN2CCCC2)c2ccc3ncc(-c4cnn(CCO)c4)nc3c2)c1 [compound 134144550]	–	1.91 nM	–
COc1cc(OC)cc(N(CCCN2CCC(N)C2)c2ccc3ncc(-c4cnn(C)c4)nc3c2)c1 (stereo not drawn) [compound 68209028]	–	1.41 nM	–
